Measurements from ChEMBL document CHEMBL4649986, “Chemical probes and inhibitors of bromodomains outside the BET family” (Medchemcomm, 2016).

How the values were obtained:
[1] = molecular target: T1, Nucleosome-remodeling factor subunit BPTF (Homo sapiens, UniProt Q12830); experiment: Alphascreen assay. Binding to FALZA (domain start/stop: S2791-H2911) by alphascreen assay
[2] = molecular target: Bromodomain-containing protein 1 (Homo sapiens) (UniProt O95696); conditions: Compound concentration 10.0 uM, Protein concentration 2.0 uM
Peregrin = Peregrin (Homo sapiens, UniProt P55201); experiment: Alphascreen assay. Binding to BRPF1B (domain start/stop: M626-G740) by alphascreen assay
[3] = molecular target: Transcription intermediary factor 1-alpha (Homo sapiens) (UniProt O15164); conditions: Compound concentration 10.0 uM, Protein concentration 2.0 uM
[4] = molecular target: Protein polybromo-1 (Homo sapiens) (UniProt Q86U86); conditions: Compound concentration 10.0 uM, Protein concentration 2.0 uM
[5] = molecular target: Transcription initiation factor TFIID subunit 1 (Homo sapiens) (UniProt P21675); conditions: Compound concentration 10.0 uM, Protein concentration 2.0 uM
[6] = molecular target: Histone acetyltransferase p300 (Homo sapiens) (UniProt Q09472); conditions: Compound concentration 10.0 uM, Protein concentration 2.0 uM
[7] = molecular target: Histone-lysine N-methyltransferase ASH1L (Homo sapiens) (UniProt Q9NR48); conditions: Compound concentration 10.0 uM, Protein concentration 2.0 uM
[8] = molecular target: Transcription initiation factor TFIID subunit 1 (Homo sapiens) (UniProt P21675); conditions: Compound concentration 10.0 uM, Protein concentration 2.0 uM; remark: listed apart in the source
[9] = molecular target: Nuclear body protein SP140 (Homo sapiens) (UniProt Q13342); conditions: Compound concentration 10.0 uM, Protein concentration 2.0 uM
[10] = molecular target: T2, Chromatin remodeling regulator CECR2 (Homo sapiens, UniProt Q9BXF3); experiment: Alphascreen assay. Binding to CECR2A (domain start/stop: P420-H538) by alphascreen assay
Target sequence in this assay (Q9BXF3 whole entry): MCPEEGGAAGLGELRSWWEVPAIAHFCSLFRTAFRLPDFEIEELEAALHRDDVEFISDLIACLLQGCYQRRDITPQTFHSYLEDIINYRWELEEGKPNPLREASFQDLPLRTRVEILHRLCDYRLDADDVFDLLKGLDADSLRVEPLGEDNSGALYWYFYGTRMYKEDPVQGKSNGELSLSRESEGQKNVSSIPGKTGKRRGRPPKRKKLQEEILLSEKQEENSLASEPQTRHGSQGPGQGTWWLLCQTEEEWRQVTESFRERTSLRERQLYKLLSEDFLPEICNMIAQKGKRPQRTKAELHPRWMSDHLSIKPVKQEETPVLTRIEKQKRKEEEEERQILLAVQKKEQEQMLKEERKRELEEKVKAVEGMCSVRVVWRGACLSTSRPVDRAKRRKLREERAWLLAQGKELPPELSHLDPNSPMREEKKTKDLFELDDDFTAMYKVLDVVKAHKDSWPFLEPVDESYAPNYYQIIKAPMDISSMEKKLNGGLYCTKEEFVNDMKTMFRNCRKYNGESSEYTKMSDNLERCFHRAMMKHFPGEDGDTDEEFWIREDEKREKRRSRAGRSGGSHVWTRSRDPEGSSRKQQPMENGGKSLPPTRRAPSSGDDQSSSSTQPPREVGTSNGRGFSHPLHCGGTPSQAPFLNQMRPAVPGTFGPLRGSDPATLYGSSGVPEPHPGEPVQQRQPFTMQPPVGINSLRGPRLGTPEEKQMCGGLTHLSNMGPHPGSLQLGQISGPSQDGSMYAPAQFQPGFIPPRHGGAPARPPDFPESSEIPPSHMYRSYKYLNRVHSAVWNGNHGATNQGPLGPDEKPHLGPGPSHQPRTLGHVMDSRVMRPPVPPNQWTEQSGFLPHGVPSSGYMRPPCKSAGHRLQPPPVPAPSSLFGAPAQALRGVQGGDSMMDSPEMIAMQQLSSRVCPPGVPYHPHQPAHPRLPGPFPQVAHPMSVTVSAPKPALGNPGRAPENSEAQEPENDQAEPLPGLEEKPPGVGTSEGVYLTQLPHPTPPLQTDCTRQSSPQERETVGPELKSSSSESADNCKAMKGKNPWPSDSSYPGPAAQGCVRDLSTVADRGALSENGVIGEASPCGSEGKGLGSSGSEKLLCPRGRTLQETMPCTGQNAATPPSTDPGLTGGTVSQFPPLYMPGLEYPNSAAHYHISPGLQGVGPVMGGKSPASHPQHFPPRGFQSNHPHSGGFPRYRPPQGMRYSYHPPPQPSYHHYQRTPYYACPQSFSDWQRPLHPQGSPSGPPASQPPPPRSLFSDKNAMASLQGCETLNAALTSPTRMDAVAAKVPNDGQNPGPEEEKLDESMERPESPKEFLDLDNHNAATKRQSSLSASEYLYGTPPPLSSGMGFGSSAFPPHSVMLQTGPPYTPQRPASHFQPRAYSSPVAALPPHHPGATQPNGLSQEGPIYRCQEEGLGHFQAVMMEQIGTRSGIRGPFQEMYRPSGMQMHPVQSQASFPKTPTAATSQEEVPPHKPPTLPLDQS

[11] = molecular target: Bromodomain-containing protein 3 (Homo sapiens) (UniProt Q15059); conditions: Compound concentration 10.0 uM, Protein concentration 2.0 uM
[12] = molecular target: Histone acetyltransferase KAT2A (Homo sapiens) (UniProt Q92830); conditions: Compound concentration 10.0 uM, Protein concentration 2.0 uM
[13] = molecular target: Protein polybromo-1 (Homo sapiens) (UniProt Q86U86); conditions: Compound concentration 10.0 uM, Protein concentration 2.0 uM; remark: listed apart in the source
[14] = molecular target: Histone acetyltransferase KAT2B (Homo sapiens) (UniProt Q92831); conditions: Compound concentration 10.0 uM, Protein concentration 2.0 uM
[15] = molecular target: Bromodomain-containing protein 2 (Homo sapiens) (UniProt P25440); conditions: Compound concentration 10.0 uM, Protein concentration 2.0 uM
[16] = molecular target: T2, Chromatin remodeling regulator CECR2; experiment: Alphascreen assay. Binding to CECR2A (domain start/stop: P420-D543) by alphascreen assay
Target sequence in this assay (Q9BXF3 whole entry): as above

[17] = molecular target: Transcription initiation factor TFIID subunit 1-like (Homo sapiens) (UniProt Q8IZX4); conditions: Compound concentration 10.0 uM, Protein concentration 2.0 uM
[18] = molecular target: Bromodomain testis-specific protein (Homo sapiens) (UniProt Q58F21); conditions: Compound concentration 10.0 uM, Protein concentration 2.0 uM
[19] = molecular target: Nuclear body protein SP140-like protein (Homo sapiens) (UniProt Q9H930); conditions: Compound concentration 10.0 uM, Protein concentration 2.0 uM
[20] = molecular target: Bromodomain adjacent to zinc finger domain protein 1A (Homo sapiens) (UniProt Q9NRL2); conditions: Compound concentration 10.0 uM, Protein concentration 2.0 uM
[21] = molecular target: Tyrosine-protein kinase BAZ1B (Homo sapiens) (UniProt Q9UIG0); conditions: Compound concentration 10.0 uM, Protein concentration 2.0 uM
[22] = molecular target: Bromodomain adjacent to zinc finger domain protein 2A (Homo sapiens) (UniProt Q9UIF9); conditions: Compound concentration 10.0 uM, Protein concentration 2.0 uM
[23] = molecular target: Protein polybromo-1 (Homo sapiens) (UniProt Q86U86); conditions: Compound concentration 10.0 uM, Protein concentration 2.0 uM; remark: listed apart in the source
[24] = molecular target: Bromodomain-containing protein 4 (Homo sapiens) (UniProt O60885); conditions: Compound concentration 10.0 uM, Protein concentration 2.0 uM
Peregrin (Homo sapiens) [25] = molecular target: Peregrin (Homo sapiens) (UniProt P55201); conditions: Compound concentration 10.0 uM, Protein concentration 2.0 uM
[26] = molecular target: T1, Nucleosome-remodeling factor subunit BPTF; conditions: Compound concentration 10.0 uM, Protein concentration 2.0 uM
[27] = molecular target: Protein polybromo-1 (Homo sapiens) (UniProt Q86U86); conditions: Compound concentration 10.0 uM, Protein concentration 2.0 uM; remark: listed apart in the source
[28] = molecular target: Protein polybromo-1 (Homo sapiens) (UniProt Q86U86); conditions: Compound concentration 10.0 uM, Protein concentration 2.0 uM; remark: listed apart in the source
[29] = molecular target: Bromodomain-containing protein 7 (Homo sapiens) (UniProt Q9NPI1); conditions: Compound concentration 10.0 uM, Protein concentration 2.0 uM
[30] = molecular target: Bromodomain and WD repeat-containing protein 1 (Homo sapiens) (UniProt Q9NSI6); conditions: Compound concentration 10.0 uM, Protein concentration 2.0 uM
[31] = molecular target: Bromodomain testis-specific protein (Homo sapiens) (UniProt Q58F21); conditions: Compound concentration 10.0 uM, Protein concentration 2.0 uM; remark: listed apart in the source
[32] = molecular target: Transcription initiation factor TFIID subunit 1-like (Homo sapiens) (UniProt Q8IZX4); conditions: Compound concentration 10.0 uM, Protein concentration 2.0 uM; remark: listed apart in the source
[33] = molecular target: ATPase family AAA domain-containing protein 2 (Homo sapiens) (UniProt Q6PL18); conditions: Compound concentration 10.0 uM, Protein concentration 2.0 uM
[34] = molecular target: SWI/SNF-related matrix-associated actin-dependent regulator of chromatin subfamily A member 2 (Homo sapiens) (UniProt P51531); conditions: Compound concentration 10.0 uM, Protein concentration 2.0 uM
[35] = molecular target: Histone-lysine N-methyltransferase 2A (Homo sapiens) (UniProt Q03164); conditions: Compound concentration 10.0 uM, Protein concentration 2.0 uM
Peregrin (Homo sapiens) [36] = molecular target: Peregrin (Homo sapiens) (UniProt P55201); conditions: Compound concentration 10.0 uM, Protein concentration 2.0 uM; remark: listed apart in the source
[37] = molecular target: Bromodomain and PHD finger-containing protein 3 (Homo sapiens) (UniProt Q9ULD4); conditions: Compound concentration 10.0 uM, Protein concentration 2.0 uM
[38] = molecular target: Protein polybromo-1 (Homo sapiens) (UniProt Q86U86); conditions: Compound concentration 10.0 uM, Protein concentration 2.0 uM; remark: listed apart in the source
[39] = molecular target: Bromodomain-containing protein 2 (Homo sapiens) (UniProt P25440); conditions: Compound concentration 10.0 uM, Protein concentration 2.0 uM; remark: listed apart in the source
[40] = molecular target: Bromodomain and WD repeat-containing protein 3 (Homo sapiens) (UniProt Q6RI45); conditions: Compound concentration 10.0 uM, Protein concentration 2.0 uM
[41] = molecular target: Bromodomain adjacent to zinc finger domain protein 2B (Homo sapiens) (UniProt Q9UIF8); conditions: Compound concentration 10.0 uM, Protein concentration 2.0 uM
[42] = molecular target: PH-interacting protein (Homo sapiens) (UniProt Q8WWQ0); conditions: Compound concentration 10.0 uM, Protein concentration 2.0 uM
[43] = molecular target: ATPase family AAA domain-containing protein 2B (Homo sapiens) (UniProt Q9ULI0); conditions: Compound concentration 10.0 uM, Protein concentration 2.0 uM
[44] = molecular target: T2, Chromatin remodeling regulator CECR2; conditions: Compound concentration 10.0 uM, Protein concentration 2.0 uM
Target sequence in this assay (Q9BXF3 whole entry, looked up): as the sequence (Q9BXF3 whole entry) above

[45] = molecular target: CREB-binding protein (Homo sapiens) (UniProt Q92793); conditions: Compound concentration 10.0 uM, Protein concentration 2.0 uM
[46] = molecular target: Transcription intermediary factor 1-beta (Homo sapiens) (UniProt Q13263); conditions: Compound concentration 10.0 uM, Protein concentration 2.0 uM
[47] = molecular target: SWI/SNF-related matrix-associated actin-dependent regulator of chromatin subfamily A member 4 (Homo sapiens) (UniProt P51532); conditions: Compound concentration 10.0 uM, Protein concentration 2.0 uM
[48] = molecular target: Bromodomain-containing protein 3 (Homo sapiens) (UniProt Q15059); conditions: Compound concentration 10.0 uM, Protein concentration 2.0 uM; remark: listed apart in the source
[49] = molecular target: Bromodomain-containing protein 9 (Homo sapiens) (UniProt Q9H8M2); conditions: Compound concentration 10.0 uM, Protein concentration 2.0 uM

Sequence of Protein polybromo-1 (Homo sapiens) (Q86U86 whole entry): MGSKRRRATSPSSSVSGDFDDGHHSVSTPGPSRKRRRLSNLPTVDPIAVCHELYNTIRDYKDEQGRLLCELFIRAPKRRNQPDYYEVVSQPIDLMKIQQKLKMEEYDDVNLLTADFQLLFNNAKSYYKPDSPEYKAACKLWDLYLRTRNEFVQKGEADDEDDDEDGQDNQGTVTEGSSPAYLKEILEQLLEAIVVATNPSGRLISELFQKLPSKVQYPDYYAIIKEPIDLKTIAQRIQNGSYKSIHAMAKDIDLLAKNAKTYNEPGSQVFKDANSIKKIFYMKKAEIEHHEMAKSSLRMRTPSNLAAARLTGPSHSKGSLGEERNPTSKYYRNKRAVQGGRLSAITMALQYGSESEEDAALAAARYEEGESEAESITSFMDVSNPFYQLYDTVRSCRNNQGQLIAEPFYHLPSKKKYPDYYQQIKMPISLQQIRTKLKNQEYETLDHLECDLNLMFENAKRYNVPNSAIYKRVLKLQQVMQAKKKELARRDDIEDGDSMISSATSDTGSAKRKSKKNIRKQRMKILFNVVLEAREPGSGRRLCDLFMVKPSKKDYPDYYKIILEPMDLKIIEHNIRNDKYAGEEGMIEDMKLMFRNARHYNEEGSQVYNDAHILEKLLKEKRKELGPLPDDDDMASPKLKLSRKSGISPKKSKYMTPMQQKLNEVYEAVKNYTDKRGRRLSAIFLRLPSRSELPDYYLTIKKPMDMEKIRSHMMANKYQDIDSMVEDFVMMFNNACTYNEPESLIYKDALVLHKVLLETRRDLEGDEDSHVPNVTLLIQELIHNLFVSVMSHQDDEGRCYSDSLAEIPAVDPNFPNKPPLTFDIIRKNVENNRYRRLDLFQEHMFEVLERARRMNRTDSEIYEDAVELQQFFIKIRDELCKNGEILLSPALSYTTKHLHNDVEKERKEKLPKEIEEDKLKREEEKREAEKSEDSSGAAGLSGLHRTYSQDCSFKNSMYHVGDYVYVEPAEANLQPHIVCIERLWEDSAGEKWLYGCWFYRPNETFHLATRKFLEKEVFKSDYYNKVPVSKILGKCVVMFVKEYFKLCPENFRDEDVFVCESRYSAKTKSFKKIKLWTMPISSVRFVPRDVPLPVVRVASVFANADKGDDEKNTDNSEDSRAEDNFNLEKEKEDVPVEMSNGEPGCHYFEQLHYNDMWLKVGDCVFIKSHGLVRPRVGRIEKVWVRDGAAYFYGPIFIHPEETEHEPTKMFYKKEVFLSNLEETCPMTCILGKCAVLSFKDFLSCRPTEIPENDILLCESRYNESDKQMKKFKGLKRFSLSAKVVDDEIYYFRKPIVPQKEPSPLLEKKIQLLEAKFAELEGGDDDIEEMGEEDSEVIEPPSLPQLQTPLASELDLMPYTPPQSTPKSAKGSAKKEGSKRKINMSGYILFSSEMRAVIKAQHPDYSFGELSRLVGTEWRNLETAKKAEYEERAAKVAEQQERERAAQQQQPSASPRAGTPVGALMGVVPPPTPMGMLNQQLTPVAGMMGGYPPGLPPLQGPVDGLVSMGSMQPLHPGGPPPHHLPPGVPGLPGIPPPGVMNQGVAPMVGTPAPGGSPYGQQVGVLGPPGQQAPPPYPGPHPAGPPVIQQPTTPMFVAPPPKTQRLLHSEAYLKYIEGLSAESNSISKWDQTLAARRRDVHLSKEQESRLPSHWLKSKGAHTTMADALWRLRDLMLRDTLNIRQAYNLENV
Sequence of Bromodomain-containing protein 2 (Homo sapiens) (P25440 whole entry, looked up): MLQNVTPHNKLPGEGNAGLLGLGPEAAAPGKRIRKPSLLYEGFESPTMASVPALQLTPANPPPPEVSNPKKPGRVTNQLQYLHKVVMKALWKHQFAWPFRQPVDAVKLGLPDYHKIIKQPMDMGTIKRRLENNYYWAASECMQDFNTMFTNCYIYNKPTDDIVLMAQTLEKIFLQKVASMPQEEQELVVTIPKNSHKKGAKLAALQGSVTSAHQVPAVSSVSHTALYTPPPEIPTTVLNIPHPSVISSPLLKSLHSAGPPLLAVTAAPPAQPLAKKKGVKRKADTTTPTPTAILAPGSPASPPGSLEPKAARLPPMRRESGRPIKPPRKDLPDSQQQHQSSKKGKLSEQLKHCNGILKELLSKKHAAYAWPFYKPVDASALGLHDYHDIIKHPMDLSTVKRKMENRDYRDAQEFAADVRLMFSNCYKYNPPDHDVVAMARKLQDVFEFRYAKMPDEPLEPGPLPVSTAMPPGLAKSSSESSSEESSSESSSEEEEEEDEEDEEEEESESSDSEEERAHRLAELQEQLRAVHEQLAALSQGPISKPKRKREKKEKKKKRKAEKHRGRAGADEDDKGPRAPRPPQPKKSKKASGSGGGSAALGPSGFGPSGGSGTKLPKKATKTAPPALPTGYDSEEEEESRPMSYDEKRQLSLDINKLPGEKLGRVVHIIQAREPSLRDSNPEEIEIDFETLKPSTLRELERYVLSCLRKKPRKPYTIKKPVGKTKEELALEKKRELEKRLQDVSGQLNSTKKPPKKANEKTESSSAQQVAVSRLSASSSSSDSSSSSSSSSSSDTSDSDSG
Sequence of Bromodomain-containing protein 3 (Homo sapiens) (Q15059 2-726 limits assumed): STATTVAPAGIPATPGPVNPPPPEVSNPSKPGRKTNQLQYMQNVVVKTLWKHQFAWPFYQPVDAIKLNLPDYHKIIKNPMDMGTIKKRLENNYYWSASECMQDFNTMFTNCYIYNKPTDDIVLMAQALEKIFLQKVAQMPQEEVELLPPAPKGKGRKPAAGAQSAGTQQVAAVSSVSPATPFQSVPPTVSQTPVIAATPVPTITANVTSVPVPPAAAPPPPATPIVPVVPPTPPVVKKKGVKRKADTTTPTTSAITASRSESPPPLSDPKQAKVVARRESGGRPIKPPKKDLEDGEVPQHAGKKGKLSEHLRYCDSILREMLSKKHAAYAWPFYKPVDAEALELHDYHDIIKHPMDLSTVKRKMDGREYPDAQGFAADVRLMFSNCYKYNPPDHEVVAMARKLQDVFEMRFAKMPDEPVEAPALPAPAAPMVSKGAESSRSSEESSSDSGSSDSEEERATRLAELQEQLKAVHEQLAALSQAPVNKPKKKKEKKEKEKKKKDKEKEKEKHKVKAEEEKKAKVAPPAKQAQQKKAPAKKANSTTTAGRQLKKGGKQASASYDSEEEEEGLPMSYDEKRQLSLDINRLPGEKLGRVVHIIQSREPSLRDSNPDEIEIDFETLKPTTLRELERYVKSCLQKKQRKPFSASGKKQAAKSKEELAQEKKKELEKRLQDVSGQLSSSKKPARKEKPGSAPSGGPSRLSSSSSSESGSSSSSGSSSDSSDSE

CCCS(=O)(=O)c1nc(NC2CC2)cc(-c2ccc3c(ccn3C3CC(C)(C)NC(C)(C)C3)c2)n1 gave an IC50 [1] of 1.46 µM, a ΔTm [2] of 0.34 °C and an IC50 (Peregrin) of 4.4 µM. The ΔTm [3] was 1.38 °C, the ΔTm [4] was 0.34 °C and the ΔTm [5] was 1.25 °C. The ΔTm [6] was 0.85 °C, the ΔTm [7] was 0.48 °C and the ΔTm [8] was 1.09 °C. It also gave a ΔTm [9] of 0.58 °C, an IC50 [10] of 0.0193 µM and a ΔTm [11] of 0.35 °C. It also gave a ΔTm [12] of 1.2 °C, a ΔTm [13] of 0.51 °C and a ΔTm [14] of 0.62 °C. For the same molecule, the ΔTm [15] was 0.39 °C, the IC50 [16] was 0.0375 µM and the ΔTm [17] was 1.56 °C. The ΔTm [18] was -0.15 °C, the ΔTm [19] was 0.62 °C and the ΔTm [20] was -0.77 °C. The ΔTm [21] was -0.35 °C, the ΔTm [22] was 0.14 °C and the ΔTm [23] was 0.48 °C. The ΔTm [24] was 1.85 °C, the ΔTm (Peregrin (Homo sapiens) [25]) was 0.38 °C and the ΔTm [26] was 1.67 °C. For the same molecule, the ΔTm [27] was -0.21 °C, the ΔTm [28] was 0.63 °C and the ΔTm [29] was 1.3 °C. For the same molecule, the ΔTm [30] was 1.71 °C, the ΔTm [31] was 0.51 °C and the ΔTm [32] was 0.73 °C. The ΔTm [33] was 1.07 °C, the ΔTm [34] was 0.87 °C and the ΔTm [35] was 0.08 °C. For the same molecule, the ΔTm (Peregrin (Homo sapiens) [36]) was 0.16 °C, the ΔTm [37] was 0.48 °C and the ΔTm [38] was 0.88 °C. The ΔTm [39] was 0.54 °C, the ΔTm [40] was -0.86 °C and the ΔTm [41] was 0.4 °C. It also gave a ΔTm [42] of -0.17 °C, a ΔTm [43] of 0.82 °C and a ΔTm [44] of 12.6 °C. For the same molecule, the ΔTm [45] was 0.36 °C, the ΔTm [46] was 1.37 °C and the ΔTm [47] was 1.26 °C. For the same molecule, the ΔTm [48] was 0.37 °C and the ΔTm [49] was 0.96 °C.
